Source: US20250320193A1, “OXOISOINDOLINYL SUBSTITUTED PIPERIDINEDIONE DERIVATIVE AND USE THEREOF” (GLUETACS THERAPEUTICS (SHANGHAI) CO., LTD., priority 2022, published 2025)

Assays:
[1] = target: human Cereblon WT GST-tagged protein (Homo sapiens (Human), UniProt Q96SW2); experiment: CRBN-binding affinity, HTRF (CEREBLON BINDING kit, CISBIO); details: HTRF inhibitory activity
Outline: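 Compounds were mixed with GST-tagged human Cereblon WT protein, then with Thalidomide-Red tracer and GST Eu antibody, and binding was read by HTRF. Inhibition rate was calculated from 620 nm emission relative to blank control wells (no protein) and solvent control wells.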

[2] = test system: MDA-MB-231 cells (human breast adenocarcinoma cells); experiment: Tumor cell proliferation inhibition, CCK-8; assay type: cell-based; details: MDA-MB-231 cells, CCK-8, read-out: inhibitory activity (IC50, nM) MDA-MB-231
Outline: (§1)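 Growth inhibition is measured by CCK-8 cell viability; IC50 is calculated from the dose–response curve. Compounds are added 24 h after seeding, starting at 10 μM and diluted 5-fold across 10 concentrations.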

[3] = test system: CCRF-CEM (human acute lymphoblastic leukemia T-cells); experiment: Tumor cell proliferation inhibition, CCK-8; assay type: cell-based; details: CCRF-CEM cells, CCK-8, read-out: inhibitory activity (IC50, nM) CCRF-CEM
Outline: as §1

[4] = test system: MM.1S cells (human multiple myeloma cells); experiment: Tumor cell proliferation inhibition, CCK-8; assay type: cell-based; details: MM1.S, MM.1S cells, CCK-8, read-out: inhibitory activity (IC50, nM) MM.1S
Outline: as §1

[5] = test system: Kasumi-1 (human acute myeloid leukemia cells); experiment: Tumor cell proliferation inhibition, CCK-8; assay type: cell-based; details: Kasumi-1 cells, CCK-8, read-out: inhibitory activity (IC50, nM) Kasumi-1
Outline: as §1

[6] = target: IKZF1 (Homo sapiens (Human), UniProt Q13422+Q96SW2); experiment: Western blot, substrate protein expression in hPBMC: IKZF1; assay type: cell-based; details: hPBMC, compound 500 nM, 24 hours, Western blot
Outline: (§2)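 hPBMC, 1×10^6 cells/mL, 24 h compound exposure; RIPA lysis, BCA protein assay, SDS-PAGE, NC membrane immunoblot. Densitometry vs internal control → % protein remaining; degradation % = 100% − remaining; DC50 = conc. at 50% of DMSO band signal.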

[7] = target: GSPT1 (Homo sapiens (Human), UniProt P15170+Q96SW2); experiment: Western blot, substrate protein expression in hPBMC: GSPT1; assay type: cell-based; details: hPBMC, compound 500 nM, 24 hours, Western blot
Outline: as §2

[8] = test system: MM.1R cells (dexamethasone-resistant human multiple myeloma cells); experiment: Tumor cell proliferation inhibition, CCK-8; assay type: cell-based; details: MM.1R cells, CCK-8, read-out: inhibitory activity (IC50, nM) MM.1R
Outline: as §1

[9] = target: IKZF3 (Homo sapiens (Human), UniProt Q96SW2+Q9UKT9); experiment: Western blot, substrate protein expression in hPBMC: IKZF3; assay type: cell-based; details: hPBMC, compound 500 nM, 24 hours, Western blot
Outline: as §2

[10] = test system: CAL-62 (human thyroid carcinoma cells); experiment: Tumor cell proliferation inhibition, CCK-8; assay type: cell-based; details: CAL-62 cells, CCK-8, read-out: inhibitory activity (IC50, nM) CAL-62
Outline: as §1

[11] = test system: Jurkat cells (human T-cell leukemia cells); experiment: Tumor cell proliferation inhibition, CCK-8; assay type: cell-based; details: Jurkat cells, CCK-8, read-out: inhibitory activity (IC50, nM) Jurkat
Outline: as §1

[12] = test system: H146 cells (human small cell lung carcinoma cells); experiment: Tumor cell proliferation inhibition, CCK-8; assay type: cell-based; details: NCI-H146, H146 cells, CCK-8, read-out: inhibitory activity (IC50, nM) H146
Outline: as §1

[13] = test system: TMD8 cells (human diffuse large B-cell lymphoma cells); experiment: Tumor cell proliferation inhibition, CCK-8; assay type: cell-based; details: TMD8 cells, CCK-8, read-out: inhibitory activity (IC50, nM) TMD8
Outline: as §1

Chain of human Cereblon WT GST-tagged protein (Q96SW2 whole entry): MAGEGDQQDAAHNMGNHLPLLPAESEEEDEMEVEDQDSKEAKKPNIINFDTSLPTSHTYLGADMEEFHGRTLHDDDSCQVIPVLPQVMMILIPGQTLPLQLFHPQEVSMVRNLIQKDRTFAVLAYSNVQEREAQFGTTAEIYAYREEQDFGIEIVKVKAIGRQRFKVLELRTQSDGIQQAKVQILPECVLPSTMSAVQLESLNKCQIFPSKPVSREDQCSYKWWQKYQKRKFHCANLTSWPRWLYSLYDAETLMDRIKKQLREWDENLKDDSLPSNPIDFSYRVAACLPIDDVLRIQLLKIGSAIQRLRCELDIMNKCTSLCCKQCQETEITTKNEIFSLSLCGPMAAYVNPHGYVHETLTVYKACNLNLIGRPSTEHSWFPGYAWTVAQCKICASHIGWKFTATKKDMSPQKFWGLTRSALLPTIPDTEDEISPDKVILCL
Chain of IKZF1 (Q13422 whole entry): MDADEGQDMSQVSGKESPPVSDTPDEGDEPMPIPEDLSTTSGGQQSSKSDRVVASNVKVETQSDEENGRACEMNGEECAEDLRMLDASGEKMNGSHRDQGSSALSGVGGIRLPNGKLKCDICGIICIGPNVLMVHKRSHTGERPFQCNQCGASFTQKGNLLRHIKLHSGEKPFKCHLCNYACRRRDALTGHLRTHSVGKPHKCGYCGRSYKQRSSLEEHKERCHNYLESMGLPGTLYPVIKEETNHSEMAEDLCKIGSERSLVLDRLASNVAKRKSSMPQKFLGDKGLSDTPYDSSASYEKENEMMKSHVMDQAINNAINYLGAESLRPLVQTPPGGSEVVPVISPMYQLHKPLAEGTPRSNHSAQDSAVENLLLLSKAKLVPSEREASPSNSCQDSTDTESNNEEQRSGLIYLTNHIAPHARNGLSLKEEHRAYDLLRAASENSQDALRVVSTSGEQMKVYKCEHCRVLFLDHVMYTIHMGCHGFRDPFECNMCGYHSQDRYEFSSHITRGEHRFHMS
Chain of IKZF1 (Q96SW2 whole entry): as the sequence (Q96SW2 whole entry) above
Chain of IKZF1 (Q16531 whole entry partner): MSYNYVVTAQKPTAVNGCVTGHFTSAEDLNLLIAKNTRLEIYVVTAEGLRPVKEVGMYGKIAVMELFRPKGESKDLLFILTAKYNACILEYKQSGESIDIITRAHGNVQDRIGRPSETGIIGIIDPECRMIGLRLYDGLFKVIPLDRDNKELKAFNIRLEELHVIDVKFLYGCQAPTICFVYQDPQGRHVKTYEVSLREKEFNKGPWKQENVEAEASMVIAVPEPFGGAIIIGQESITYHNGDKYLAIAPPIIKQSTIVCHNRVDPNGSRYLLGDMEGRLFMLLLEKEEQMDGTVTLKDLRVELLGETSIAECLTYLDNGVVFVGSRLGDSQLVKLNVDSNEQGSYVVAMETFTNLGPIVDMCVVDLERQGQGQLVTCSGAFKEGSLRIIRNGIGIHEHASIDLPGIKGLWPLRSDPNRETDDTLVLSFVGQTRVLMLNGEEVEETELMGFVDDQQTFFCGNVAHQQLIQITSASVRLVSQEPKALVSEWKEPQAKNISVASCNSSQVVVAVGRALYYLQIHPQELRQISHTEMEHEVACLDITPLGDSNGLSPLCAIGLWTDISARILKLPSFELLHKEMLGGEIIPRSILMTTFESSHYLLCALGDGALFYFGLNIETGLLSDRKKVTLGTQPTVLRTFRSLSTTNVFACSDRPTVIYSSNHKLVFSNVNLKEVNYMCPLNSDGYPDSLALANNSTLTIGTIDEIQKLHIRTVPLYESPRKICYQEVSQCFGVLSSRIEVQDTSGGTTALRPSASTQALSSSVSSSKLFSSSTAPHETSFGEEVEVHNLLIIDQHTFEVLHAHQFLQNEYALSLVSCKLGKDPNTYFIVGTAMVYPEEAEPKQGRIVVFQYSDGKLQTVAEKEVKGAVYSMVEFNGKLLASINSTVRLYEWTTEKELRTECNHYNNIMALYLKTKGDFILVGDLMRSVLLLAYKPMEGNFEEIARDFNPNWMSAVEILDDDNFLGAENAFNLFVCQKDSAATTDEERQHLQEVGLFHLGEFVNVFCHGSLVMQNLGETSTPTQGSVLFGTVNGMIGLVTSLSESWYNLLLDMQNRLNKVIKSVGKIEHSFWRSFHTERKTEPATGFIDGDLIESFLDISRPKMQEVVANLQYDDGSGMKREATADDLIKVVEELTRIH
Chain of GSPT1 (P15170 whole entry): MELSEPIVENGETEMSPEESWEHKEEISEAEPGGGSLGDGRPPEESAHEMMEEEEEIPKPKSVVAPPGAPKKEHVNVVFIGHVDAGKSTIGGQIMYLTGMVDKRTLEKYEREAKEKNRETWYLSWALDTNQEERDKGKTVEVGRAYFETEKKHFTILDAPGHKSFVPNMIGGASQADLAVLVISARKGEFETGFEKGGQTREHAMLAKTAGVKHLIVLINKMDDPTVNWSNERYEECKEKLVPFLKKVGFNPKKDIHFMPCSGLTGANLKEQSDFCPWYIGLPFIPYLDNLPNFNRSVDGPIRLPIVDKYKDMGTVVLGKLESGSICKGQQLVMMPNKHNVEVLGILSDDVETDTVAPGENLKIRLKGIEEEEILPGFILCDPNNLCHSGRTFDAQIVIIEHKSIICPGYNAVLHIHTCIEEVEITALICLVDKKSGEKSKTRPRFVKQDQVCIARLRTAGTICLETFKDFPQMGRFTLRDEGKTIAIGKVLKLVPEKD
Chain of GSPT1 (Q96SW2 whole entry): as the sequence (Q96SW2 whole entry) above
Chain of GSPT1 (Q16531 whole entry partner): as the sequence (Q16531 whole entry partner) above
Chain of IKZF3 (Q9UKT9 whole entry): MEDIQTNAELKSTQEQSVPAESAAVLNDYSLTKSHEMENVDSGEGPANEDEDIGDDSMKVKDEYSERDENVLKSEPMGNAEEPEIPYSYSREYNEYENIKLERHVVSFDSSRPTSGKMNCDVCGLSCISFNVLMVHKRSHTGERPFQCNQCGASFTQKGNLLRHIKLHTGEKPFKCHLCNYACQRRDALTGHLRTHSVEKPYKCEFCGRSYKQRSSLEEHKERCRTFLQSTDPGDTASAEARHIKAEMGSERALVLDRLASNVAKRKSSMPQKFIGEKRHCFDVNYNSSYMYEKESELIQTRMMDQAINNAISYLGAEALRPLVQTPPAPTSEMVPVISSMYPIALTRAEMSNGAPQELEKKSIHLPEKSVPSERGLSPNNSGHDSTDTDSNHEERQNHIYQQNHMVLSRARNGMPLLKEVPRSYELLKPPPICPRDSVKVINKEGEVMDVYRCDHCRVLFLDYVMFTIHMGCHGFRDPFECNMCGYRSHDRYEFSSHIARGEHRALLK
Chain of IKZF3 (Q96SW2 whole entry): as the sequence (Q96SW2 whole entry) above
Chain of IKZF3 (Q16531 whole entry partner): as the sequence (Q16531 whole entry partner) above

Row | Structure (SMILES) | IC50 [1] [µM] | IC50 [2] [nM] | IC50 [3] [nM] | IC50 [4] [nM] | IC50 [5] [nM] | substrate protein remaining % IKZF1 [6] | substrate protein remaining % GSPT1 [7] | IC50 [8] [nM] | substrate protein remaining % IKZF3 [9] | IC50 [10] [nM] | IC50 [11] [nM] | IC50 [12] [nM] | IC50 [13] [nM]
1 | O=C1CCC(N2Cc3cc(CN4CCN(C(c5ccccc5)c5ccccc5)CC4)cc(F)c3C2=O)C(=O)N1 (centres unmarked) [GT-03467, 3-(5-((4-benzhydrylpiperazin-1-yl)methyl)-7-fluoro-1-oxoisoindolin-2-yl)piperidine-2,6-dione] | 0.5 to 1 | 100 to 500 | 10 to 50 | 100 to 500 | 50 to 100 | – | – | – | – | – | – | – | –
2 | O=C1CCC(N2Cc3cc(CN4CCN(C(c5ccc(Cl)cc5)c5ccc(Cl)cc5)CC4)ccc3C2=O)C(=O)N1 (centres unmarked) [GT-03566, 3-(5-((4-(bis(4-chlorophenyl)methyl)piperazin-1-yl)methyl)-1-oxoisoindolin-2-yl)piperidine-2,6-dione] | 1 to 1.9 | – | 10 to 50 | 500 to 1000 | – | A (A represents 0% ≤ substrate protein remaining % ≤ 50%) | A (A represents 0% ≤ substrate protein remaining % ≤ 50%) | 100 to 500 | A (A represents 0% ≤ substrate protein remaining % ≤ 50%) | – | – | – | –
3 | O=C1CCC(N2Cc3cc(CN4CCN(C(c5ccc(Cl)cc5)c5ccc(Cl)cc5)CC4)c(F)cc3C2=O)C(=O)N1 (centres unmarked) [GT-03699, 3-(5-((4-(bis(4-chlorophenyl)methyl)piperazin-1-yl)methyl)-6-fluoro-1-oxoisoindolin-2-yl)piperidine-2,6-dione] | – | – | 10 to 50 | 50 to 100 | – | B (B represents substrate protein remaining % > 50%) | A (A represents 0% ≤ substrate protein remaining % ≤ 50%) | 50 to 100 | A (A represents 0% ≤ substrate protein remaining % ≤ 50%) | 50 to 100 | – | – | –
4 | O=C1CCC(N2Cc3cc(CN4CCN(C(c5cccc(F)c5)c5cccc(F)c5)CC4)cc(F)c3C2=O)C(=O)N1 (centres unmarked) [GT-03704, 3-(5-((4-(bis(3-fluorophenyl)methyl)piperazin-1-yl)methyl)-7-fluoro-1-oxoisoindolin-2-yl)piperidine-2,6-dione] | < 0.5 | 50 to 100 | 1 to 10 | 10 to 50 | 50 to 100 | B (B represents substrate protein remaining % > 50%) | A (A represents 0% ≤ substrate protein remaining % ≤ 50%) | 10 to 50 | A (A represents 0% ≤ substrate protein remaining % ≤ 50%) | 10 to 50 | 100 to 500 | 100 to 500 | –
5 | O=C1CCC(N2Cc3c(ccc(CN4C[C@@H]5C[C@H]4CN5C(c4ccccc4)c4ccccc4)c3F)C2=O)C(=O)N1 (stereo partly drawn) [GT-03724, 3-(5-(((1S,4S)-5-benzhydryl-2,5-diazabicyclo[2.2.1]heptan-2-yl)methyl)-4-fluoro-1-oxoisoindolin-2-yl)piperidine-2,6-dione] | < 0.5 | – | 10 to 50 | 10 to 50 | – | A (A represents 0% ≤ substrate protein remaining % ≤ 50%) | A (A represents 0% ≤ substrate protein remaining % ≤ 50%) | 10 to 50 | A (A represents 0% ≤ substrate protein remaining % ≤ 50%) | – | – | – | –
6 | O=C1CCC(N2Cc3cc(CN4C5CCC4CN(C(c4ccccc4)c4ccccc4)C5)ccc3C2=O)C(=O)N1 (centres unmarked) [GT-03837, 3-(5-((3-benzhydryl-3,8-diazabicyclo[3.2.1]octan-8-yl)methyl)-1-oxoisoindolin-2-yl)piperidine-2,6-dione] | < 0.5 | – | – | 10 to 50 | – | B (B represents substrate protein remaining % > 50%) | A (A represents 0% ≤ substrate protein remaining % ≤ 50%) | 500 to 1000 | A (A represents 0% ≤ substrate protein remaining % ≤ 50%) | – | – | – | –
7 | O=C1CCC(N2Cc3cc(CN4C5CCC4CN(C(c4ccccc4)c4ccccc4)C5)c(F)cc3C2=O)C(=O)N1 (centres unmarked) [GT-03839, 3-(5-((3-benzhydryl-3,8-diazabicyclo[3.2.1]octan-8-yl)methyl)-6-fluoro-1-oxoisoindolin-2-yl)piperidine-2,6-dione] | 1 to 1.9 | 50 to 100 | 10 to 50 | 10 to 50 | 10 to 50 | B (B represents substrate protein remaining % > 50%) | A (A represents 0% ≤ substrate protein remaining % ≤ 50%) | 10 to 50 | A (A represents 0% ≤ substrate protein remaining % ≤ 50%) | 10 to 50 | – | 500 to 1000 | –
8 | O=C1CCC(N2Cc3cc(CN4CCC(N(c5ccccc5)c5ccccc5)CC4)c(F)cc3C2=O)C(=O)N1 (centres unmarked) [GT-04227, 3-(5-((4-(diphenylamino)piperidin-1-yl)methyl)-6-fluoro-1-oxoisoindolin-2-yl)piperidine-2,6-dione] | 0.5 to 1 | 1 to 10 | < 1 | < 1 | – | A (A represents 0% ≤ substrate protein remaining % ≤ 50%) | A (A represents 0% ≤ substrate protein remaining % ≤ 50%) | – | A (A represents 0% ≤ substrate protein remaining % ≤ 50%) | < 1 | < 1 | 1 to 10 | 1 to 10
9 | O=C1CCC(N2Cc3cc(CN4CCN(C(c5ccccc5)c5cccnc5)CC4)c(F)cc3C2=O)C(=O)N1 (centres unmarked) [GT-04251, 3-(6-fluoro-1-oxo-5-((4-(phenyl(pyridin-3-yl)methyl)piperazin-1-yl)methyl)isoindolin-2-yl)piperidine-2,6-dione] | < 0.5 | 100 to 500 | 10 to 50 | 10 to 50 | – | A (A represents 0% ≤ substrate protein remaining % ≤ 50%) | A (A represents 0% ≤ substrate protein remaining % ≤ 50%) | – | A (A represents 0% ≤ substrate protein remaining % ≤ 50%) | 10 to 50 | 50 to 100 | 100 to 500 | 100 to 500
10 | O=C1CCC(N2Cc3cc(CN4CCN([C@H](c5ccccc5)c5ccccn5)CC4)ccc3C2=O)C(=O)N1 (stereo partly drawn) [GT-04523, 3-(1-oxo-5-((4-((R)-phenyl(pyridin-2-yl)methyl)piperazin-1-yl)methyl)isoindolin-2-yl)piperidine-2,6-dione] | 0.5 to 1 | 50 to 100 | – | 1 to 10 | – | A (A represents 0% ≤ substrate protein remaining % ≤ 50%) | A (A represents 0% ≤ substrate protein remaining % ≤ 50%) | 1 to 10 | A (A represents 0% ≤ substrate protein remaining % ≤ 50%) | 1 to 10 | 50 to 100 | 10 to 50 | 500 to 1000
11 | O=C1CCC(N2Cc3cc(CN4CCN([C@@H](c5ccccc5)c5ccccn5)CC4)ccc3C2=O)C(=O)N1 (stereo partly drawn) [GT-04524, 3-(1-oxo-5-((4-((S)-phenyl(pyridin-2-yl)methyl)piperazin-1-yl)methyl)isoindolin-2-yl)piperidine-2,6-dione] | 0.5 to 1 | 500 to 1000 | – | 10 to 50 | – | A (A represents 0% ≤ substrate protein remaining % ≤ 50%) | A (A represents 0% ≤ substrate protein remaining % ≤ 50%) | 10 to 50 | A (A represents 0% ≤ substrate protein remaining % ≤ 50%) | 10 to 50 | 10 to 50 | 100 to 500 | –
